Data from patent US4321212A, “Method for preparing an optically active α-cyano-3-phenoxybenzyl 2-(4-substituted-phenyl)isovalerate” (Sumitomo Chemical Company Limited, priority 1980, dated 1982).
≈ marks a conversion by molar mass, not a printed value.

Experiments:
houseflies = experiment: Topical application to female adult WHO-strain houseflies (Test Example 2); type: in vivo, housefly, WHO-strain (standard susceptible strain); conditions: 0.5 μl acetone solution to the thorax, female adults, 24 hours
Experimental: The compounds of this invention, (1), (2), (3), (4) and (5), were diluted with acetone to a predetermined concentration, and 0.5 μl of each solution was topically applied to the thorax of female adult WHO-strain houseflies (standard susceptible strain) with a microsyringe. The flies were placed in plastic cups each having a diameter of 11 cm in which a bait (3% sugar water) was placed. 24 hours later, the alive and dead was evaluated to determine the LD50 (median lethal dose) (μg/housefly).

carmine mites = experiment: Spray test against carmine mites on potted kidney beans (Test Example 3); type: in vivo, carmine mite; conditions: 20% emulsifiable concentrate diluted 500-fold with water, 10 ml/pot, after 10 days
Experimental: 10 to 15 female adult carmine mites were placed on each leaf of potted kidney beans (2-leaf stage) 9 days old after seeding. After standing in a constant temperature room at 27° C. for a week, a lot of mites in various growth stages were observed on the beans. Each of the emulsifiable concentrates prepared from the compounds of this invention, (1), (2), (3), (4), and (5), in the procedures described in Formulation Example 2 was diluted 500-fold with water and sprayed to the beans on a turntable in a proportion of 10 ml/pot.

tobacco cutworms = experiment: Leaf-dip test on fourth instar larvae of tobacco cutworms (Test Example 1); type: in vivo, tobacco cutworm; conditions: foliar, cabbage leaf dip 1 minute, emulsifiable concentrate diluted with water, 24 hours, 10 larvae per group, three replications, read-out: LC50 (concentration required for 50% death)
Experimental: Each of the emulsifiable concentrates prepared from the compounds of this invention, (4) and (5), in the procedures described in Formulation Example 2 was diluted with water to a pre-determined concentration, and mixed with 3,000 times by weight based on the diluted solution of a spreader (Shin-Rino, a registered trademark of Nippon Noyaku Co., Ltd., for a mixture containing 20% of an alkylphenol polyethylene glycol ether and 12% of a salt of lignin sulfonic acid).
The dried leaves were placed in plastic cups (diameter 10 cm, height 4 cm) at a rate of 2 leaves/cup, and the fourth instar larvae of tobacco cutworms were liberated therein. The dead and alive was evaluated after 24 hours and the values of LC50 (concentration required for 50% death) were obtained.
Experiments of three replications were carried out using 10 larvae per group.

| Compound | LD50 (median lethal dose) (houseflies) | damage of the kidney beans by the mites (carmine mites) | LC50 (tobacco cutworms) |
| --- | --- | --- | --- |
| CC(C)C(C(=O)OC(C#N)c1cccc(Oc2ccccc2)c1)c1ccc(OC(F)F)cc1 (racemic) [(b), reference compound] | 0.15 μg/housefly | – | – |
| COc1ccc(C(C(=O)OC(C#N)c2cccc(Oc3ccccc3)c2)C(C)C)cc1 (racemic) [Reference Compound (a), reference compound] | 0.35 μg/housefly | – | – |
| COc1ccc([C@@H](C(=O)OC(C#N)c2cccc(Oc3ccccc3)c2)C(C)C)cc1 (stereo partly drawn) [Compound (1), α-cyano-3-phenoxybenzyl S-(+)-2-(4-methoxyphenyl)isovalerate] | 0.18 μg/housefly | hardly observed | – |
| COc1ccc([C@@H](C(=O)OC(C#N)c2cccc(Oc3ccccc3)c2)C(C)C)cc1 (stereo partly drawn) [Compound (2), α-cyano-3-phenoxybenzyl S-(+)-2-(4-methoxyphenyl)isovalerate] | 0.13 μg/housefly | hardly observed | – |
| COc1ccc([C@@H](C(=O)O[C@H](C#N)c2cccc(Oc3ccccc3)c2)C(C)C)cc1 [Compound (3), (S)-α-cyano-3-phenoxybenzyl S-(+)-2-(4-methoxyphenyl)isovalerate] | 0.10 μg/housefly | hardly observed | – |
| CC(C)[C@H](C(=O)O[C@H](C#N)c1cccc(Oc2ccccc2)c1)c1ccc(OC(F)F)cc1 [Compound (4), α-cyano-3-phenoxybenzyl S-(+)-2-(4-difluoromethoxyphenyl)isovalerate] | 0.038 μg/housefly | hardly observed | 5.9 µg/mL (≈ 13.1 µM) |
| CC(C)[C@H](C(=O)OC(C#N)c1cccc(Oc2ccccc2)c1)c1ccc(OC(F)F)cc1 (stereo partly drawn) [Compound (5), α-cyano-3-phenoxybenzyl S-(+)-2-(4-difluoromethoxyphenyl)isovalerate] | 0.042 μg/housefly | hardly observed | 6.9 µg/mL (≈ 15.3 µM) |
